{"source": "patent US20200375992A1", "about": "“PHARMACEUTICAL COMPOSITION AND USE FOR APPLYING PALBOCICLIB IN DISEASE TREATMENT OF PATIENT AND INHIBITION OF PI3K ACTIVITY” (Chang Gung University, priority 2019, published 2020)", "key": {"PI3K p110β/p85α": {"target": "PI3K p110β/p85α (Homo sapiens, UniProt P42338)", "sequence (P42338 whole entry)": "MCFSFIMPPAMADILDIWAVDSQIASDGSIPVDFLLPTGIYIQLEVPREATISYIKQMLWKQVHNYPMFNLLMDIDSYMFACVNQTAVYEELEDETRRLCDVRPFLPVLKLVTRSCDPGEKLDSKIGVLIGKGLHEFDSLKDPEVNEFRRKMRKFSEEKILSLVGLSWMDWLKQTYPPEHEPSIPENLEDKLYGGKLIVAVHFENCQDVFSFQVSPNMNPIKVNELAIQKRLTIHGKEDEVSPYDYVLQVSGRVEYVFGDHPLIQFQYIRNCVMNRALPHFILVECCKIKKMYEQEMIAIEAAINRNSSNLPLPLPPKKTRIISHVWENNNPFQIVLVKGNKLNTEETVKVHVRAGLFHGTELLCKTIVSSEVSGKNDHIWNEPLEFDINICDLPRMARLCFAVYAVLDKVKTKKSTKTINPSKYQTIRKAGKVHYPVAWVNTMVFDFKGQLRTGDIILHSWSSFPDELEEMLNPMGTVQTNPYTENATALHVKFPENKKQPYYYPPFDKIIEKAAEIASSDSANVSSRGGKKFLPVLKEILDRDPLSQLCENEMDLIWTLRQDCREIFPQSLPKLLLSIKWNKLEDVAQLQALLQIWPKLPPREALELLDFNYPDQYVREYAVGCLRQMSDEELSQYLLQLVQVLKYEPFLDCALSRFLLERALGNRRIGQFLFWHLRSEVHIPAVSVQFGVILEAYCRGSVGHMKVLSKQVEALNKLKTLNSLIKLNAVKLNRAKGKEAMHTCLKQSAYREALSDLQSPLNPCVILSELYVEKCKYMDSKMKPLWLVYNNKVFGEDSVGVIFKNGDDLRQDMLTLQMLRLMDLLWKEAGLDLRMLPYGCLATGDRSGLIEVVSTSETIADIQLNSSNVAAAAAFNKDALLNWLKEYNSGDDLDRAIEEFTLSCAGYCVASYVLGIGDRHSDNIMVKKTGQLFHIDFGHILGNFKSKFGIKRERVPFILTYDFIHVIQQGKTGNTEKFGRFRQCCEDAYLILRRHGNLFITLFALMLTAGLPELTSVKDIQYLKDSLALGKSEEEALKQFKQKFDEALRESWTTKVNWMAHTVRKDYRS", "sequence (P27986 whole entry partner)": "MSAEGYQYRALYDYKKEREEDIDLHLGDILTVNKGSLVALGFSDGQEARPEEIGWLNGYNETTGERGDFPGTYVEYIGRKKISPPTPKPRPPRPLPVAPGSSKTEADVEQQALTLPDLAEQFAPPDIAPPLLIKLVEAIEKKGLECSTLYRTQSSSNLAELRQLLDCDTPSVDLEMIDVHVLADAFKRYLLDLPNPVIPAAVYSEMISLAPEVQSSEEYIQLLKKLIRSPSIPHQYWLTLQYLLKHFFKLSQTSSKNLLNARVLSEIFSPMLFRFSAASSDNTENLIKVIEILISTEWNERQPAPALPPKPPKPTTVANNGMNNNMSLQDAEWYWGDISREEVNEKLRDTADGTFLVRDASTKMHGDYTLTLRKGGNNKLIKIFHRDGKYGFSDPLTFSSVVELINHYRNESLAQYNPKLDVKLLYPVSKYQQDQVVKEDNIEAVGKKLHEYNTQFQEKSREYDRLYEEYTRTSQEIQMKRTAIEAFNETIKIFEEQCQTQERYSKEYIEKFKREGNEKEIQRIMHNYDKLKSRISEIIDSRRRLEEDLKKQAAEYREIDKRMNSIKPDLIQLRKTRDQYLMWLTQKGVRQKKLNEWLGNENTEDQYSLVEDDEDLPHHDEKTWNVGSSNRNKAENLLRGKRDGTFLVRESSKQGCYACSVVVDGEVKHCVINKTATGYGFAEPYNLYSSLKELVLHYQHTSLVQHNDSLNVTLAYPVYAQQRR", "experiment": "PI3K p110β/p85α enzymatic activity, Kinase-Glo Luminescent Kinase Assay", "format": "biochemical", "settings": "3 μM, 10 μM and 30 μM of Palbociclib; p<0.001 compared with control; activity decreased with increasing concentration; n=6; FIG. 1B", "experimental": "(§1) Palbociclib was dissolved in ddH2O (as solvent) and then added to the reagents which contain PI3K p110α/p85α (50 ng/ml), PI3K p110β/p85α (150 ng/ml), or PI3K p110δ/p85α (50 ng/ml). The final concentration of Palbociclib was 0.1 to 30 μM. Then, the mixtures were incubated for 10 minutes at 25° C. The reagent which was added by ddH2O (solvent, marked as “−” in FIGS. 1A-1C) instead of Palbociclib was as a control in this experiment. 2.5X ATP/substrate was added to each reagent and then further incubated for 60 minutes. Finally, enzymatic activities of PI3K were analyzed according to the user manual of Kinase-Glo® Luminescent Kinase Assays (Promega Corporation, catalog number V1690) and luminometer (TECAN infinite 200 Pro) by using Kinase-Glo® Luminescent Kinase Assays."}, "[1]": {"system": "fMLF-stimulated neutrophils", "experiment": "Elastase release in fMLF-stimulated neutrophils (Methoxysuccinyl-Ala-Ala-Val-p-nitroanilide, OD450)", "format": "cell-based", "settings": "3 μM and 10 μM of Palbociclib; human neutrophils stimulated with fMLF (0.1 μM)/cytochalasin B; compared with control; decreased with increasing concentration; FIG. 2B", "experimental": "(§2) The informed consent to participate which was approved by the Institutional Review Board are signed by the donors. 50 mL of blood was collected from the median cubital vein of each donor by sterile vacutainer, and was used to isolate neutrophils for the following experiments.\n(§3) Human neutrophils (isolated from whole blood of donors) were incubated with ddH2O (as solvent, marked as “−” in the groups at X-axis in FIGS. 2A and 2B) or Palbociclib (0.3-10 μM, dissolved in ddH2O) for 5 minutes, and then stimulated the neutrophils with or without fMLF (0.1 μM)/cytochalasin B (CB, 1 μg/ml) for another 10 minutes to activate the neutrophils. The absorbances (OD550 and OD450) of the reaction mixture were then measured by a spectrophotometer at OD 550 nm and OD 450 nm. The reading of OD550 is used to detect the reduction of ferricytochrome c, which indicates the amount of superoxide anion. The reading of OD450 is used to detect the status of Methoxysuccinyl-Ala-Ala-Val-p-nitroanilide (which is a specific substrate of elastase) affected by elastase, which indicates the release amount and activity of elastase. Cytochalasin B was sold by Sigma-Aldrich, catalog number #2506; fMLF was sold by Sigma-Aldrich, catalog number #454454; model number of the spectrophotometer is HITACHI U-3010. […]"}, "PI3K p110α/p85α": {"target": "PI3K p110α/p85α (Homo sapiens, UniProt P42336)", "sequence (P42336 whole entry)": "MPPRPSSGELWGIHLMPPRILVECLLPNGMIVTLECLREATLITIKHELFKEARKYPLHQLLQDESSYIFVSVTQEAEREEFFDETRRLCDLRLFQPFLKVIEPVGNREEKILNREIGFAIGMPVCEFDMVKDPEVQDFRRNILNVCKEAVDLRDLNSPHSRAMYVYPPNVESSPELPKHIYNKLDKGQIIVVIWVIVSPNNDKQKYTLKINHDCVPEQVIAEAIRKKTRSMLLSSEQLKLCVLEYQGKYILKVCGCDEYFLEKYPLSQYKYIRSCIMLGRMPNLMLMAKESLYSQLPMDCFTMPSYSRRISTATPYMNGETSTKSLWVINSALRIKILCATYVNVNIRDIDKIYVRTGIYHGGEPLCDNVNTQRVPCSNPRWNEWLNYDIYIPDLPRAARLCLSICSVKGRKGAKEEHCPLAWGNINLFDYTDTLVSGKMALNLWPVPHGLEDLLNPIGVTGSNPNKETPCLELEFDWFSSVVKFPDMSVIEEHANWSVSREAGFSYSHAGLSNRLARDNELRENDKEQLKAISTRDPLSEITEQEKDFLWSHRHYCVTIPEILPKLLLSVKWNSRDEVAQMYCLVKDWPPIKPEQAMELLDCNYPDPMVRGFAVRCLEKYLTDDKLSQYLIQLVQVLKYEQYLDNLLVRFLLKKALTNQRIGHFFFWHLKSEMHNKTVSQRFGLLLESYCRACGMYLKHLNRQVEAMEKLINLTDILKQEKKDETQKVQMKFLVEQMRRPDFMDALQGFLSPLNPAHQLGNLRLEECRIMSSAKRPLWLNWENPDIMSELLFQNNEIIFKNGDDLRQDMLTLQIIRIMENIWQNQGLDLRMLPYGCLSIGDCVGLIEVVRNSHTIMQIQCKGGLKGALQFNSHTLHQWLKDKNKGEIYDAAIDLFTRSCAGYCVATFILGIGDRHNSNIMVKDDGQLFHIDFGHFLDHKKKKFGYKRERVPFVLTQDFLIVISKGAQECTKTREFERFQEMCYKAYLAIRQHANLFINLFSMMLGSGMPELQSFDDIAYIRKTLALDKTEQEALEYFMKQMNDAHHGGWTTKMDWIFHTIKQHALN", "sequence (P27986 whole entry partner)": "as the sequence (P27986 whole entry partner) above", "experiment": "PI3K p110α/p85α enzymatic activity, Kinase-Glo Luminescent Kinase Assay", "format": "biochemical", "settings": "3 μM, 10 μM and 30 μM of Palbociclib; p<0.001 compared with control; activity decreased with increasing concentration; n=6; FIG. 1A", "experimental": "as §1"}, "[2]": {"system": "fMLF-stimulated neutrophils", "experiment": "Superoxide anion generation in fMLF-stimulated neutrophils (ferricytochrome c reduction, OD550)", "format": "cell-based", "settings": "1 μM, 3 μM and 10 μM of Palbociclib; human neutrophils stimulated with fMLF (0.1 μM)/cytochalasin B; compared with control; decreased with increasing concentration; FIG. 2A", "experimental": "as §2, §3"}, "IMQ-treated mice": {"system": "IMQ-treated mice", "experiment": "Psoriasis-like symptoms in IMQ-treated mice", "format": "in vivo, Male BALB/c mice", "experimental": "500 μg of Palbociclib was dissolved in 100 μl of 60% ethanol to make a pharmaceutical composition. The Palbociclib concentration of the pharmaceutical composition was 500 μg/100 μl and used in the subsequent animal experimental example 4. Male BALB/c mice (7-9 weeks of age, the body weight of each mouse is about 20 g) were divided into different groups, and each group has 6 mice. Each mouse was epilation on the back and then treated with 100 μl of solvent (60% ethanol) or 100 μl of the pharmaceutical composition prepared in example 3 (the concentration of Palbociclib is 25 mg/kg of body weight) by applying on the nude back skin before topical treatment of imiquimod (IMQ, sold by 3M Health Care Limited). And then applying with or without IMQ on the nude back skin of mice to cause psoriasis-like symptom. Each treatment was given once per day for 5 consecutive days. The mice which applying solvent and IMQ is played as the control. The mice which merely applying solvent or Palbociclib without IMQ are played as the blank 1 and blank 2."}, "PI3K p110δ/p85α": {"target": "PI3K p110δ/p85α (Homo sapiens, UniProt O00329)", "sequence (O00329 whole entry)": "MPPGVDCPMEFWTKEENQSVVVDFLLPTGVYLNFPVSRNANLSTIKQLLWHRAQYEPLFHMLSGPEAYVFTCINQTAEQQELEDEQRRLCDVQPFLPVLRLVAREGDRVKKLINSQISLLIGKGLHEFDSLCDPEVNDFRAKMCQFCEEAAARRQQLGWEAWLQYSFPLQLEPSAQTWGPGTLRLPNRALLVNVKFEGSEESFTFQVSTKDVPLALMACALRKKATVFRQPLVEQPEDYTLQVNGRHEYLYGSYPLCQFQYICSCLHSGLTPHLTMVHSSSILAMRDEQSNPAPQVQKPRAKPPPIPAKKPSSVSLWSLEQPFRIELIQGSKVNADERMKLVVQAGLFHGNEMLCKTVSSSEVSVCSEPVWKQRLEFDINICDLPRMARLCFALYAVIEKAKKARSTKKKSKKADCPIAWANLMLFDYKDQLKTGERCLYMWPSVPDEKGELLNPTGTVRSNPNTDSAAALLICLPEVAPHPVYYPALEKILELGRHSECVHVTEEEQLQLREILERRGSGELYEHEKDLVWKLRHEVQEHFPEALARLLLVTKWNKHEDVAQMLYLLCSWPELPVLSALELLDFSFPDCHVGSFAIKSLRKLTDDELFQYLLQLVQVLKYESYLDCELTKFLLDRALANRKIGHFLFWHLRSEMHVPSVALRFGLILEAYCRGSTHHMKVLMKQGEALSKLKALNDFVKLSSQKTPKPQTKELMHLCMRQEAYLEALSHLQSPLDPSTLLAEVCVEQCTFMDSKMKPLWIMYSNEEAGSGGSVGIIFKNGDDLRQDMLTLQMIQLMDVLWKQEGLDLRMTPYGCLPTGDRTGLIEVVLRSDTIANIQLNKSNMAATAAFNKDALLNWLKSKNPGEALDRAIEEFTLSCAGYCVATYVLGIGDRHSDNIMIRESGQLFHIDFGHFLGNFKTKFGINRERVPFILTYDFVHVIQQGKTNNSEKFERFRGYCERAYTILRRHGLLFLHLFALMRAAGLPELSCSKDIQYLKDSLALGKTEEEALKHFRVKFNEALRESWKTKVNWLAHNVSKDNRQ", "sequence (P27986 whole entry partner)": "as the sequence (P27986 whole entry partner) above", "experiment": "PI3K p110δ/p85α enzymatic activity, Kinase-Glo Luminescent Kinase Assay", "format": "biochemical", "settings": "0.1 μM, 1 μM and 10 μM of Palbociclib; p<0.001 compared with control; activity decreased with increasing concentration; n=6; FIG. 1C", "experimental": "as §1"}}, "data": [{"smiles": "CC(=O)c1c(C)c2cnc(Nc3ccc(N4CCNCC4)cn3)nc2n(C2CCCC2)c1=O", "note": "[Palbociclib, 6-acetyl-8-cyclopentyl-5-methyl-2-((5-(piperazin-1-yl)pyridin-2-yl)amino)pyrido [2,3-d]pyrimidin-7(8H)-one]", "values": [{"measurement": "PI3K p110β/p85α activity", "setting": "PI3K p110β/p85α", "value": "significantly inhibit"}, {"measurement": "release of elastase", "setting": "[1]", "value": "significantly restrict"}, {"measurement": "PI3K p110α/p85α activity", "setting": "PI3K p110α/p85α", "value": "significantly inhibit"}, {"measurement": "generation of superoxide anion", "setting": "[2]", "value": "significantly restrict"}, {"measurement": "psoriasis-like symptoms (enlarged skin photos by handheld digital microscope, FIG. 3B)", "setting": "IMQ-treated mice; Palbociclib 25 mg/kg topical on back skin and IMQ, once per day, after the treatment in 5th day, control shows symptoms from 3rd day", "value": "not observed"}, {"measurement": "psoriasis-like symptoms (skin photos, FIG. 3A)", "setting": "IMQ-treated mice; Palbociclib 25 mg/kg topical on back skin then IMQ, once per day for 5 days, compared with control (solvent and IMQ), 5th day", "value": "significantly improved"}, {"measurement": "PI3K p110δ/p85α activity", "setting": "PI3K p110δ/p85α", "value": "significantly inhibit"}]}]}
